Reference: PubChem BioAssay AID248 (DTP/NCI, 2004)
Where “and” joins values, the source holds several entries; their conditions need not be identical. Equal values may be shown once. Inconclusive results and toxic doses are left out. Cut-off read from the data, not from the text of the source: active = T/C of 150% or more; inactive = T/C below 125%.

Test system: L1210 leukemia ip in BDF1 mice, survival T/C
Experiment: NCI In Vivo Anticancer Drug Screen. Data for tumor model L1210 Leukemia (intraperitoneal) in B6D2F1 (BDF1) mice
Conditions: higher = longer survival
How it was run: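 Ratio derived from survival: compound-dosed mice over vehicle-dosed mice, all bearing a transplantable tumor.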

Measured: T/C

Cc1c2ccncc2c(C)c2c1[nH]c1ccccc12
inactive: endpoint: mean survival time, dose: 0.31 mg/kg/injection, schedule: Q#A X018 (ip), vehicle: other 102 % of control | endpoint: mean survival time, dose: 0.5 mg/kg/injection, schedule: Q01DX005 (ip), vehicle: other 105 % of control | endpoint: mean survival time, dose: 0.59 mg/kg/injection, schedule: Q03HX008 (ip), vehicle: other 94 % of control | endpoint: mean survival time, dose: 1.0 mg/kg/injection, schedule: Q01DX009 (ip), vehicle: other 111 % of control | endpoint: mean survival time, dose: 1.0 mg/kg/injection, schedule: Q01DX009 (ip), vehicle: water 107 % of control and 110 % of control | endpoint: mean survival time, dose: 1.0 mg/kg/injection, schedule: Q03HX024 (ip), vehicle: acid diluted with saline 110 % of control | endpoint: mean survival time, dose: 1.18 mg/kg/injection, schedule: Q03HX008 (ip), vehicle: other 98 % of control | endpoint: mean survival time, dose: 1.25 mg/kg/injection, schedule: Q#A X018 (ip), vehicle: other 110 % of control | endpoint: mean survival time, dose: 2.0 mg/kg/injection, schedule: Q01DX009 (ip), vehicle: other 111 % of control | endpoint: mean survival time, dose: 2.0 mg/kg/injection, schedule: Q03HX016 (ip), vehicle: clinical formulation 105 % of control | endpoint: mean survival time, dose: 2.0 mg/kg/injection, schedule: Q03HX016 (oral), vehicle: clinical formulation 95 % of control | endpoint: mean survival time, dose: 3.12 mg/kg/injection, schedule: Q01DX005 (oral), vehicle: saline 95 % of control | endpoint: mean survival time, dose: 3.12 mg/kg/injection, schedule: Q01DX009 (ip), vehicle: clinical formulation 102 % of control | endpoint: mean survival time, dose: 3.12 mg/kg/injection, schedule: Q04DX003 (ip), vehicle: clinical formulation 108 % of control | endpoint: mean survival time, dose: 3.12 mg/kg/injection, schedule: Q04DX009 (ip), vehicle: citric acid 101 % of control | endpoint: mean survival time, dose: 4.0 mg/kg/injection, schedule: Q01DX009 (oral), vehicle: clinical formulation 102 % of control | endpoint: mean survival time, dose: 4.0 mg/kg/injection, schedule: Q03HX008 (oral), vehicle: clinical formulation 109 % of control | endpoint: mean survival time, dose: 4.0 mg/kg/injection, schedule: Q03HX016 (oral), vehicle: clinical formulation 105 % of control | endpoint: mean survival time, dose: 4.0 mg/kg/injection, schedule: Q03HX024 (oral), vehicle: clinical formulation 110 % of control | endpoint: mean survival time, dose: 5.0 mg/kg/injection, schedule: Q01DX015 (oral), vehicle: carboxymethylcellulose (CMC) 105 % of control | endpoint: mean survival time, dose: 6.2 mg/kg/injection, schedule: Q01DX001 (ip), vehicle: saline 108 % of control | endpoint: mean survival time, dose: 6.2 mg/kg/injection, schedule: Q01DX Z (oral), vehicle: saline 110 % of control | endpoint: mean survival time, dose: 6.25 mg/kg/injection, schedule: Q01DX005 (oral), vehicle: saline 104 % of control | endpoint: mean survival time, dose: 6.25 mg/kg/injection, schedule: Q01DX005 (oral), vehicle: water 106 % of control | endpoint: mean survival time, dose: 6.25 mg/kg/injection, schedule: Q04DX003 (ip), vehicle: citric acid 107 % of control | endpoint: mean survival time, dose: 6.25 mg/kg/injection, schedule: Q04DX003 (ip), vehicle: clinical formulation 109 % of control and 110 % of control | endpoint: mean survival time, dose: 6.25 mg/kg/injection, schedule: Q04DX009 (ip), vehicle: citric acid 110 % of control | endpoint: mean survival time, dose: 8.0 mg/kg/injection, schedule: Q04DX003 (ip), vehicle: Klucel (hydroxypropylcellulose) (HPC) 110 % of control | endpoint: mean survival time, dose: 8.0 mg/kg/injection, schedule: Q04DX003 (ip), vehicle: acid diluted with saline 109 % of control | endpoint: mean survival time, dose: 9.37 mg/kg/injection, schedule: Q01DX001 (ip), vehicle: other 103 % of control | endpoint: mean survival time, dose: 9.37 mg/kg/injection, schedule: Q01DX001 (sc), vehicle: other 103 % of control and 104 % of control | endpoint: mean survival time, dose: 9.38 mg/kg/injection, schedule: Q01DX001 (ip), vehicle: other 100 % of control | endpoint: mean survival time, dose: 9.38 mg/kg/injection, schedule: Q04DX003 (ip), vehicle: clinical formulation 110 % of control | endpoint: mean survival time, dose: 10.0 mg/kg/injection, schedule: Q01DX015 (oral), vehicle: carboxymethylcellulose (CMC) 110 % of control | endpoint: mean survival time, dose: 12.5 mg/kg/injection, schedule: Q01DX005 (oral), vehicle: water 109 % of control | endpoint: mean survival time, dose: 12.5 mg/kg/injection, schedule: Q04DX003 (oral), vehicle: saline 106 % of control | endpoint: mean survival time, dose: 12.5 mg/kg/injection, schedule: Q04DX003 (oral), vehicle: water 104 % of control | endpoint: mean survival time, dose: 16.0 mg/kg/injection, schedule: Q03HX008 (ip), vehicle: clinical formulation 94 % of control | endpoint: mean survival time, dose: 16.0 mg/kg/injection, schedule: Q08DX002 (oral), vehicle: clinical formulation 100 % of control | endpoint: mean survival time, dose: 18.75 mg/kg/injection, schedule: Q01DX001 (sc), vehicle: other 107 % of control | endpoint: mean survival time, dose: 25.0 mg/kg/injection, schedule: Q01DX001 (oral), vehicle: saline with Tween-80 103 % of control | endpoint: mean survival time, dose: 25.0 mg/kg/injection, schedule: Q01DX001 (oral), vehicle: water 104 % of control | endpoint: mean survival time, dose: 25.0 mg/kg/injection, schedule: Q01DX009 (ip), vehicle: citric acid 108 % of control | endpoint: mean survival time, dose: 25.0 mg/kg/injection, schedule: Q01DX009 (ip), vehicle: clinical formulation 101 % of control | endpoint: mean survival time, dose: 25.0 mg/kg/injection, schedule: Q04DX003 (oral), vehicle: saline 104 % of control | endpoint: mean survival time, dose: 32.0 mg/kg/injection, schedule: Q01DX001 (oral), vehicle: clinical formulation 106 % of control | endpoint: mean survival time, dose: 32.0 mg/kg/injection, schedule: Q03HX008 (oral), vehicle: clinical formulation 110 % of control | endpoint: mean survival time, dose: 37.5 mg/kg/injection, schedule: Q01DX001 (oral), vehicle: other 110 % of control | endpoint: mean survival time, dose: 37.5 mg/kg/injection, schedule: Q01DX001 (sc), vehicle: saline 101 % of control and 109 % of control | endpoint: mean survival time, dose: 40.0 mg/kg/injection, schedule: Q#A X018 (ip), vehicle: other 105 % of control | endpoint: mean survival time, dose: 50.0 mg/kg/injection, schedule: Q01DX001 (oral), vehicle: water 104 % of control | endpoint: mean survival time, dose: 50.0 mg/kg/injection, schedule: Q01DX009 (ip), vehicle: saline with Tween-80 95 % of control | endpoint: mean survival time, dose: 50.0 mg/kg/injection, schedule: Q01DX009 (oral), vehicle: saline 110 % of control | endpoint: mean survival time, dose: 64.0 mg/kg/injection, schedule: Q04DX003 (ip), vehicle: Klucel (hydroxypropylcellulose) (HPC) 94 % of control and 95 % of control | endpoint: mean survival time, dose: 75.0 mg/kg/injection, schedule: Q01DX001 (oral), vehicle: saline 108 % of control | endpoint: mean survival time, dose: 75.0 mg/kg/injection, schedule: Q01DX001 (sc), vehicle: saline 103 % of control and 105 % of control | endpoint: mean survival time, dose: 75.0 mg/kg/injection, schedule: Q01DX009 (ip), vehicle: saline with Tween-80 98 % of control | endpoint: mean survival time, dose: 75.0 mg/kg/injection, schedule: Q04DX003 (ip), vehicle: clinical formulation 94 % of control | endpoint: mean survival time, dose: 75.0 mg/kg/injection, schedule: Q04DX003 (ip), vehicle: lactic acid 92 % of control | endpoint: mean survival time, dose: 80.0 mg/kg/injection, schedule: Q01DX009 (ip), vehicle: other 104 % of control | endpoint: mean survival time, dose: 80.0 mg/kg/injection, schedule: Q#A X018 (ip), vehicle: other 104 % of control | endpoint: mean survival time, dose: 80.0 mg/kg/injection, schedule: Q#A X018 (oral), vehicle: other 96 % of control | endpoint: mean survival time, dose: 100.0 mg/kg/injection, schedule: Q01DX009 (ip), vehicle: saline with Tween-80 93 % of control | endpoint: mean survival time, dose: 100.0 mg/kg/injection, schedule: Q04DX003 (oral), vehicle: water 110 % of control | endpoint: mean survival time, dose: 128.0 mg/kg/injection, schedule: Q01DX005 (ip), vehicle: saline 100 % of control | endpoint: mean survival time, dose: 128.0 mg/kg/injection, schedule: Q01DX009 (ip), vehicle: water 103 % of control and 108 % of control | endpoint: mean survival time, dose: 128.0 mg/kg/injection, schedule: Q08DX002 (ip), vehicle: clinical formulation 101 % of control | endpoint: mean survival time, dose: 150.0 mg/kg/injection, schedule: Q01DX001 (oral), vehicle: saline with Tween-80 108 % of control | endpoint: mean survival time, dose: 150.0 mg/kg/injection, schedule: Q01DX001 (sc), vehicle: saline 103 % of control and 110 % of control | endpoint: mean survival time, dose: 160.0 mg/kg/injection, schedule: Q01DX015 (oral), vehicle: carboxymethylcellulose (CMC) 104 % of control | endpoint: mean survival time, dose: 170.0 mg/kg/injection, schedule: Q01DX Z (oral), vehicle: saline 105 % of control | endpoint: mean survival time, dose: 200.0 mg/kg/injection, schedule: Q04DX003 (ip), vehicle: water 104 % of control | endpoint: mean survival time, dose: 256.0 mg/kg/injection, schedule: Q01DX005 (ip), vehicle: other 110 % of control | endpoint: mean survival time, dose: 256.0 mg/kg/injection, schedule: Q01DX009 (ip), vehicle: other 104 % of control | endpoint: mean survival time, dose: 300.0 mg/kg/injection, schedule: Q01DX001 (sc), vehicle: saline 110 % of control | endpoint: mean survival time, dose: 300.0 mg/kg/injection, schedule: Q04DX003 (ip), vehicle: saline with Tween-80 103 % of control | endpoint: mean survival time, dose: 300.0 mg/kg/injection, schedule: Q04DX003 (ip), vehicle: saline 100 % of control | endpoint: mean survival time, dose: 400.0 mg/kg/injection, schedule: Q04DX002 (ip), vehicle: Klucel (hydroxypropylcellulose) (HPC) 97 % of control | endpoint: mean survival time, dose: 400.0 mg/kg/injection, schedule: Q04DX003 (oral), vehicle: saline 93 % of control | endpoint: mean survival time, dose: 600.0 mg/kg/injection, schedule: Q01DX001 (ip), vehicle: Klucel (hydroxypropylcellulose) (HPC) 103 % of control | endpoint: mean survival time, dose: 600.0 mg/kg/injection, schedule: Q01DX001 (sc), vehicle: saline 109 % of control and 110 % of control | endpoint: mean survival time, dose: 960.0 mg/kg/injection, schedule: Q01DX001 (ip), vehicle: other 110 % of control | endpoint: median survival time, dose: 2.0 mg/kg/injection, schedule: Q03HX008 (oral), vehicle: other 100 % of control | endpoint: median survival time, dose: 4.0 mg/kg/injection, schedule: Q01DX009 (oral), vehicle: other 111 % of control | endpoint: median survival time, dose: 32.0 mg/kg/injection, schedule: Q01DX009 (oral), vehicle: other 100 % of control | endpoint: median survival time, dose: 32.0 mg/kg/injection, schedule: Q01DX009 (sc), vehicle: water 100 % of control | endpoint: median survival time, dose: 64.0 mg/kg/injection, schedule: Q01DX009 (oral), vehicle: other 94 % of control | endpoint: median survival time, dose: 256.0 mg/kg/injection, schedule: Q01DX001 (sc), vehicle: water 100 % of control | endpoint: median survival time, dose: 400.0 mg/kg/injection, schedule: Q04DX003 (ip), vehicle: saline with Tween-80 111 % of control
